Some test systems named below: A549 NSCLC; EKVX NSCLC; HCT-116 colon; HL-60(TB) leukemia; MOLT-4 leukemia; SR leukemia; UO-31 renal; A498 renal; HCC-2998 colon; NCI-H226 lung.
Assay in all cases: NCI anticancer screen, dose series, 48 h

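Method: 48-hour compound exposure of cells in 96-well plates, five concentrations, linear interpolation of endpoints. GI50 marks 50% less growth. At the TGI there is no net growth.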

`COc1ccc(C[C@H](N)C(=O)N2C[C@@H](CO)C[C@@H](n3cnc4c(N(C)C)ncnc43)C2)cc1`: the TGI in the test on A549 NSCLC, in the test with EKVX NSCLC, in the test on HCT-116 colon, with HL-60(TB) leukemia, in the test on MOLT-4 leukemia and with SR leukemia was more than 100 µM each time. This compound registered a TGI in the test with UO-31 renal of more than 100 µM.
For the compound `COc1cc(/C=C\c2ccc(OC(C)=O)cc2)cc(OC)c1OC`, the TGI with A498 renal was 78.4 µM; with A549 NSCLC, more than 100 µM; in the test on EKVX NSCLC it was more than 100 µM; in the test with HCC-2998 colon it was more than 100 µM; in the test on HCT-116 colon, more than 100 µM; in the test with MOLT-4 leukemia it was more than 100 µM. Also, the values for the TGI in the test on NCI-H226 lung, with SR leukemia and in the test on UO-31 renal were more than 100 µM, more than 100 µM and 28.7 µM, respectively.
For `C#CCN(N=O)C(=O)NCCCC(NC(C)=O)C(=O)NCc1ccccc1` (stereo not drawn), the TGI in the test on A498 renal, in the test with A549 NSCLC, in the test with EKVX NSCLC, with HCC-2998 colon, with HCT-116 colon and in the test with MOLT-4 leukemia was more than 100 µM throughout. In addition, the figures for the TGI with NCI-H226 lung, in the test on SR leukemia and in the test with UO-31 renal were more than 100 µM, 51 µM and more than 100 µM, respectively.
As for `CO[C@@H]1[C@H]2[C@@H](C)c3ccoc3C[C@@H]2[C@@]2(C)CC[C@H](OC(=O)c3ccccc3)[C@](C)(C(=O)O)[C@]2(O)[C@@H]1OC(=O)c1ccccc1`, the GI50 was 0.941 µM with A498 renal; 10.6 µM with A549 NSCLC; 11.1 µM with EKVX NSCLC; 8.89 µM with HCT-116 colon; 14.7 µM in the test on HL-60(TB) leukemia; 9.67 µM in the test with MOLT-4 leukemia. The GI50 with NCI-H226 lung was 9.77 µM; with SR leukemia, 10.9 µM; in the test with UO-31 renal, more than 50 µM. Moreover, the TGI is 7.67 µM in the test with A498 renal; more than 50 µM in the test with A549 NSCLC; 45.6 µM in the test on EKVX NSCLC; 15.8 µM with HCT-116 colon; more than 50 µM in the test with HL-60(TB) leukemia; 38.4 µM in the test with MOLT-4 leukemia. For the same compound, the TGI in the test with NCI-H226 lung was 26.7 µM; in the test on SR leukemia, more than 50 µM; in the test with UO-31 renal, more than 50 µM.
With `COc1cc(CC(C(=O)O)C(=O)O)c(OC)cc1CC(C(=O)O)C(=O)O`, the TGI in the test on A498 renal, in the test with A549 NSCLC, in the test on EKVX NSCLC, with HCT-116 colon, with HL-60(TB) leukemia and in the test on MOLT-4 leukemia was more than 100 µM in each case. Further, the TGI with NCI-H226 lung, with SR leukemia and in the test with UO-31 renal was more than 100 µM throughout.
`Cc1ccc(/C=C(\C#N)c2ccccc2)cc1`: the TGI in the test on A498 renal, in the test on HCC-2998 colon, with HCT-116 colon, in the test with MOLT-4 leukemia, with NCI-H226 lung and with SR leukemia was more than 100 µM in each case. Moreover, in the test on UO-31 renal, the TGI was more than 100 µM.
In the case of `CC(=O)O[C@H]1C(=O)[C@@]2(C)[C@H]([C@H](OC(=O)c3ccccc3)[C@@]3(O)C[C@H](O)C(C)=C1C3(C)C)[C@]1(OC(C)=O)CO[C@@H]1C[C@@H]2O`, the TGI in the test with A549 NSCLC, with EKVX NSCLC, in the test on HCT-116 colon, in the test on HL-60(TB) leukemia, in the test with MOLT-4 leukemia and with NCI-H226 lung was more than 100 µM each time. Moreover, the TGI in the test on SR leukemia and with UO-31 renal was more than 100 µM each time.
Take `O=C(O)CCSC(=S)Nc1cccc(F)c1`: the TGI in the test on A498 renal is 77.7 µM; in the test on A549 NSCLC it was more than 100 µM; with EKVX NSCLC, 81.8 µM; with HCC-2998 colon it was more than 100 µM; in the test with HCT-116 colon, more than 100 µM; in the test with MOLT-4 leukemia, more than 100 µM. Besides, the TGI in the test on NCI-H226 lung, with SR leukemia and in the test with UO-31 renal was more than 100 µM each time.
`O=C(O)CCSC(=O)Nc1ccccc1Cl`: the TGI in the test on A498 renal, with A549 NSCLC, in the test with EKVX NSCLC, in the test with HCC-2998 colon, with HCT-116 colon and in the test with MOLT-4 leukemia was more than 100 µM in each case. Besides, the TGI with NCI-H226 lung, with SR leukemia and in the test on UO-31 renal was more than 100 µM in each case.
Consider `CC[C@]12C=CCN3CC[C@@]4(c5ccc(OC)cc5N(C)[C@H]4[C@@](O)(C(=O)OC)[C@@H]1OC(=O)CCC(=O)N[C@H](Cc1c[nH]c4ccccc14)C(=O)OC)[C@@H]32`, for which the GI50 is 9.29 µM in the test with A498 renal; 5.36 µM in the test on A549 NSCLC; 10.7 µM in the test with EKVX NSCLC; 6.01 µM with HCC-2998 colon; 3.02 µM with HCT-116 colon; 3.25 µM in the test with MOLT-4 leukemia. Moreover, the GI50 was 5.39 µM in the test with NCI-H226 lung, 3.55 µM in the test on SR leukemia and 2.97 µM in the test with UO-31 renal. Further, the TGI in the test with A498 renal is 30.8 µM; with A549 NSCLC, 22.1 µM; in the test on EKVX NSCLC, 35.7 µM; in the test on HCC-2998 colon, 37.9 µM; in the test on HCT-116 colon, more than 100 µM; in the test on MOLT-4 leukemia, more than 100 µM. Moreover, the TGI with NCI-H226 lung was 27.5 µM; with SR leukemia, more than 100 µM; in the test on UO-31 renal, 13.7 µM.
